# From publication PMC7601231 (Polymers, 2020)
# Tests used:
# [1] = Pharmacokinetic study in rats after injection; assay type: in vivo, Sprague–Dawley rats; settings: 10 mg/kg, n = 12
# Description: Blood samples (0.5 mL) were taken from the retinal vein of the rats using a capillary and at the following time points after injecting: 5, 10, 15, 30 min, 1, 2, 4, 6, 8, 10 and 12 h. The sample should be transferred to the heparin sodium tube for anticoagulation. The samples were centrifuged at 4000 rpm for 10 min. The resultant plasma was poured into 2-mL cryogenic plastic tubes and stored in a freezer (at […]) until assayed. A week later, the two groups of animals exchanged the drug and obtained plasma samples, which were stored in the −20-degree refrigerator for analysis. The sample was extracted in the following steps: the plasma ([…]) was mixed with […] of paclitaxel solution (4.0 mg/mL) as […], and 1.0 mL methyl tert-butyl ether in a 2-mL plastic centrifuge tube, centrifuged at 10,000 rpm for 5 min to precipitate the proteins and the supernatant layer (0.8 mL) was blown dry by N2 and is dissolved by 0.1 mL methanol, which was centrifuged at 10,000 rpm for 10 min. The supernatant layer ([…]) was analyzed by LC-MS (Waters, American).
# The plasma concentration versus time curves of the two preparations were plotted. The pharmacokinetic parameters such as elimination rate (Ke) and elimination half-life (T1/2) were calculated by using DAS2.0 software. The maximum peak concentration (Cmax) and the corresponding sampling time (Tmax) were obtained from the curves directly. The areas under the plasma concentration–time curve from time zero to time t (AUC0–t) and from time zero to infinity (AUC0-∞) were calculated by the method of moments. Statistical comparisons were made by using a ANOVA test and p value smaller than 0.05 was considered statistically significant.
# [2] = Vascular stimulation test, ear vein injection; assay type: in vivo, New Zealand white rabbits; settings: rabbit ear vein, 0.7 mg/kg, every day, three injections
# Description: Preparations were administered every day for a total of three injections. At designed time points, rabbits were anesthetized and ear tissue was soaked with 10% formalin. Then the histopathologic examination was conducted.
# [3] = Phase-solubility studies of DTX in SBE-β-CD aqueous solution; assay type: physicochemical; settings: 25 °C
# Description: In this study, the stability constant was assessed by classic determination method using solubility diagrams that required calculations involving drug solubility. […] Then the resulting suspensions were shaken in a thermostatic air-bath shaker at 25 °C for 48 h until equilibrium was achieved. After that, the saturated supernatant fluid was centrifuged for 5 min under 5000 rpm, and then the top fluid was withdrawn and filtered through a 0.45-μm filter. The filtrate was diluted appropriately with deionized water and analyzed by HPLC as reported above.
# [4] = Biodistribution study in rats; assay type: in vivo; settings: 10 mg/kg, 10, 60 and 360 min after administration
structure (smiles),measurement,setting,value
"CC(=O)O[C@@]12CO[C@@H]1C[C@H](O)[C@@]1(C)C(=O)[C@H](O)C3=C(C)[C@@H](OC(=O)[C@H](O)[C@@H](NC(=O)OC(C)(C)C)c4ccccc4)C[C@@](O)([C@@H](OC(=O)c4ccccc4)[C@H]21)C3(C)C [DTX, Docetaxel]",AUC(0-t),[1],881.4 ± 30.4 ng/mL ∗ h
same,AUC(0-∞),[1],925.8 ± 35.2 ng/mL ∗ h
same,Cmax,"[1]; male, Sprague-Dawley, rat, plasma, other: injection",1100 ± 98 ng/mL
same,vascular stimulation: reaction at the injection site (histopathology),[2],serious vascular inflammation and surrounding tissue lesions
same,increase of water solubility of DTX over its original values,[3],about 800 times
same,"concentration of DTX in brain, fat and testis",[4],low
